{"source": "patent US20050096254A1", "about": "“Peptide deformylase activated prodrugs” (priority 2002, published 2005)", "key": {"Stability in PBS, pH 7.4": {"assay": "Stability in PBS, pH 7.4", "type": "physicochemical", "conditions": "for half-life: pH 7.4, read-out: Stability PBS, pH 7.4 t1/2 (converted); for Stability PBS, pH 7.4 % left after 6 hrs: pH 7.4, after 6 hrs"}, "[1]": {"assay": "Stability in Mueller Hinton Broth", "type": "physicochemical", "conditions": "for half-life: read-out: Stability Mueller Hinton Broth t1/2 (converted)"}, "[2]": {"assay": "Stability in Mouse Plasma", "type": "in vitro ADME", "conditions": "for half-life: read-out: Stability Mouse Plasma t1/2"}, "[3]": {"assay": "Stability in Human Plasma", "type": "in vitro ADME", "conditions": "for half-life: read-out: Stability Human Plasma t1/2"}, "E. faecalis": {"system": "E. faecalis", "assay": "MIC susceptibility testing (modified NCCLS)", "type": "cell-based", "conditions": "Enterococcus faecalis, ATCC29212; Table 6, E. faecalis ATCC 29212; read-out: MIC", "procedure": "(§1) The NCCLS (National Committee for Clinical Laboratory Standards), method to determine MIC's of antimicrobial compounds is modified for high-throughput screening. All stocks of tested compounds are prepared in either water or in DMSO depending on solubility. At the highest concentration, DMSO content should not exceed 0.5%. Briefly, twenty 2-fold serial dilutions of test compounds from the highest concentration is made in a 384-well microtiter plate. Each well is inoculated with testing bacteria in broth to a final concentration of approximately 1-1.5×10^6 cells/ml. Bacterial growth is determined by the increase of optical density at 600 nm using a microplate reader (Tecan SpectraFluor Plus)."}, "E. coli": {"system": "E. coli", "assay": "MIC susceptibility testing (modified NCCLS)", "type": "cell-based", "conditions": "Escherichia coli, ATCC25922; Table 6, E. coli ATCC 25922; read-out: MIC", "procedure": "as §1"}, "S. aureus": {"system": "S. aureus", "assay": "MIC susceptibility testing (modified NCCLS)", "type": "cell-based", "conditions": "Staphylococcus aureus", "procedure": "as §1"}, "P. aeruginosa": {"system": "P. aeruginosa", "assay": "MIC susceptibility testing (modified NCCLS)", "type": "cell-based", "conditions": "Pseudomonas aeruginosa, ATCC27853; Table 6, P. aeruginosa ATCC 27853; read-out: MIC", "procedure": "as §1, with “Each well is inoculated with testing bacteria in broth to a final concentration of approximately 1-1.5×10^6 cells/ml.” left out"}, "PDF": {"biological_target": "PDF (Escherichia coli, UniProt P0A6K3)", "sequence (P0A6K3 whole entry)": "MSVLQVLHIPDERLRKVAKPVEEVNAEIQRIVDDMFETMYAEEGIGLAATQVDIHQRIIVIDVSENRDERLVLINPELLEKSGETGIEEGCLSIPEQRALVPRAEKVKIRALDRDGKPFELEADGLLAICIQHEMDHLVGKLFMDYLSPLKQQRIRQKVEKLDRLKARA", "conditions": "Wei et al. (2000); read-out: Ki (competitive PDF inhibitor); cited from earlier work"}}, "note": "Read-outs that look alike come from different tables or passages of the source.", "data": [{"smiles": "CSCCC(NC=O)C(=O)NC(CC(C)C)C(=O)Oc1c(Br)cc(CO)cc1Br", "note": "(centres unmarked) [NB3144, 2-(2-formylamino-4-methylsulfanyl-butyrylamino)-4-methyl-pentanoic Acid 2,6-dibromo-hydroxymethyl-phenyl Ester]", "values": [{"measurement": "half-life", "setting": "Stability in PBS, pH 7.4", "result": 3.3, "unit": "h"}, {"measurement": "half-life", "setting": "[1]", "result": 2.9, "unit": "h"}]}, {"smiles": "CSCCC(NC=O)C(=O)NC(CC(C)C)C(=O)Oc1c(-c2ccccc2)cc(CO)cc1-c1ccccc1", "note": "(centres unmarked) [NB3145, 2-(2-formylamino-4-methylsulfanyl-butyrylamino)-4-methyl-pentanoic Acid 5′-hydroxymethyl-[1,1′;3′,1″]terphenyl-2′-yl Ester]", "values": [{"measurement": "Stability PBS, pH 7.4 % left after 6 hrs", "setting": "Stability in PBS, pH 7.4", "result": 99, "unit": "%"}, {"measurement": "half-life", "setting": "Stability in PBS, pH 7.4", "result": "> 12", "unit": "h"}, {"measurement": "Stability Mouse Plasma % left after 10 min", "setting": "[2]", "result": 94, "unit": "%"}, {"measurement": "half-life", "setting": "[2]", "result": "> 0.333", "unit": "h"}, {"measurement": "Stability Human Plasma % left after 120 min", "setting": "[3]", "result": 94, "unit": "%"}, {"measurement": "half-life", "setting": "[3]", "result": "> 2", "unit": "h"}, {"measurement": "Stability Mueller Hinton Broth % left after 6 hrs", "setting": "[1]", "result": 99, "unit": "%"}, {"measurement": "half-life", "setting": "[1]", "result": "> 12", "unit": "h"}]}, {"smiles": "COc1cc(CO)cc(Br)c1OC(=O)C(CC(C)C)NC(=O)C(CCSC)NC=O", "note": "(centres unmarked) [NB3162, 2-(2-formylamino-4-methylsulfanyl-butyrylamino)-4-methyl-pentanoic Acid 2-bromo-4-hydroxymethyl-6-methoxy-phenyl Ester]", "values": [{"measurement": "Stability PBS, pH 7.4 % left after 6 hrs", "setting": "Stability in PBS, pH 7.4", "result": 98, "unit": "%"}, {"measurement": "half-life", "setting": "Stability in PBS, pH 7.4", "result": "> 12", "unit": "h"}, {"measurement": "half-life", "setting": "[2]", "result": 0.148, "unit": "h"}, {"measurement": "half-life", "setting": "[3]", "result": 0.177, "unit": "h"}, {"measurement": "Stability Mueller Hinton Broth % left after 6 hrs", "setting": "[1]", "result": 91, "unit": "%"}, {"measurement": "half-life", "setting": "[1]", "result": "> 12", "unit": "h"}]}, {"smiles": "CSCCC(NC=O)C(=O)NC(CC(C)C)C(=O)Oc1c(C)cc(CO)cc1C", "note": "(centres unmarked) [NB3165, 2-(2-formylamino-4-methylsulfanyl-butyrylamino)-4-methyl-pentanoic Acid 4-hydroxymethyl-2,6-dimethyl-phenyl Ester]", "values": [{"measurement": "Stability PBS, pH 7.4 % left after 6 hrs", "setting": "Stability in PBS, pH 7.4", "result": 85, "unit": "%"}, {"measurement": "half-life", "setting": "Stability in PBS, pH 7.4", "result": "> 12", "unit": "h"}, {"measurement": "Stability Mouse Plasma % left after 10 min", "setting": "[2]", "result": 94, "unit": "%"}, {"measurement": "half-life", "setting": "[2]", "result": "> 0.333", "unit": "h"}, {"measurement": "Stability Human Plasma % left after 120 min", "setting": "[3]", "result": 94, "unit": "%"}, {"measurement": "half-life", "setting": "[3]", "result": "> 2", "unit": "h"}, {"measurement": "Stability Mueller Hinton Broth % left after 6 hrs", "setting": "[1]", "result": 95, "unit": "%"}, {"measurement": "half-life", "setting": "[1]", "result": "> 12", "unit": "h"}]}, {"smiles": "CSCCC(NC=O)C(=O)NC(CC(C)C)C(=O)Oc1c(Br)cc(CO)cc1-c1ccco1", "note": "(centres unmarked) [NB3177, 2-(2-Formylamino-4-methylsulfanyl-butyrylamino)-4-methyl-pentanoic Acid 2-bromo-6furan-2-yl-4-hydroxymethyl-phenyl Ester]", "values": [{"measurement": "Stability PBS, pH 7.4 % left after 6 hrs", "setting": "Stability in PBS, pH 7.4", "result": 95, "unit": "%"}, {"measurement": "half-life", "setting": "Stability in PBS, pH 7.4", "result": "> 12", "unit": "h"}, {"measurement": "Stability Mouse Plasma % left after 10 min", "setting": "[2]", "result": 88, "unit": "%"}, {"measurement": "half-life", "setting": "[2]", "result": "> 0.333", "unit": "h"}, {"measurement": "half-life", "setting": "[3]", "result": 0.533, "unit": "h"}, {"measurement": "Stability Mueller Hinton Broth % left after 6 hrs", "setting": "[1]", "result": 89, "unit": "%"}, {"measurement": "half-life", "setting": "[1]", "result": "> 12", "unit": "h"}]}, {"smiles": "CCn1cc(C(=O)O)c(=O)c2cc(F)c(N3CCNCC3)cc21", "note": "[Norfloxacin, norfloxacin, reference compound]", "values": [{"measurement": "MIC", "setting": "E. faecalis", "result": 1000, "unit": "ng/mL"}, {"measurement": "MIC", "setting": "E. coli", "result": 15.6, "unit": "ng/mL"}, {"measurement": "MIC", "setting": "S. aureus; ATCC29213, Table 6, S. aureus (MS) ATCC 29213, read-out: MIC", "result": 500, "unit": "ng/mL"}, {"measurement": "MIC", "setting": "S. aureus; ATCC33591, Table 6, S. aureus (MR) ATCC 33591, read-out: MIC", "result": 1000, "unit": "ng/mL"}, {"measurement": "MIC", "setting": "P. aeruginosa", "result": 500, "unit": "ng/mL"}]}, {"smiles": "Oc1cc(Cl)ccc1Oc1ccc(Cl)cc1Cl", "note": "[Triclosan, triclosan, reference compound]", "values": [{"measurement": "MIC", "setting": "S. aureus; ATCC 11632 / MSSA", "result": 1.95, "unit": "ng/mL"}, {"measurement": "MIC", "setting": "S. aureus; ATCC 13301 / MSSA", "result": 0.488, "unit": "ng/mL"}, {"measurement": "MIC", "setting": "S. aureus; ATCC 14154 / MSSA", "result": 1.95, "unit": "ng/mL"}, {"measurement": "MIC", "setting": "S. aureus; ATCC 33591 / MSSA", "result": 7.81, "unit": "ng/mL"}, {"measurement": "MIC", "setting": "S. aureus; ATCC 33592 / MSSA", "result": 3.91, "unit": "ng/mL"}, {"measurement": "MIC", "setting": "S. aureus; ATCC 33593 / MSSA", "result": 0.977, "unit": "ng/mL"}, {"measurement": "MIC", "setting": "S. aureus; ATCC 43300 / MSSA", "result": 1.95, "unit": "ng/mL"}, {"measurement": "MIC", "setting": "S. aureus; ATCC 700260 / MSSA", "result": 0.244, "unit": "ng/mL"}, {"measurement": "MIC", "setting": "S. aureus; ATCC 700698 / MSSA", "result": 3.91, "unit": "ng/mL"}, {"measurement": "MIC", "setting": "S. aureus; ATCC 700699 / MSSA", "result": "≥ 4000", "unit": "ng/mL"}, {"measurement": "MIC", "setting": "S. aureus; ATCC 700787 / MSSA", "result": 1.95, "unit": "ng/mL"}, {"measurement": "MIC", "setting": "S. aureus; ATCC 700788 / MSSA", "result": 31.2, "unit": "ng/mL"}, {"measurement": "MIC", "setting": "S. aureus; ATCC 700789 / MSSA", "result": 15.6, "unit": "ng/mL"}]}, {"smiles": "CCCCC(CS)C(=O)NC(CCCNC(=N)N)C(=O)Nc1ccc2ccccc2c1", "note": "(centres unmarked) [optimal inhibitor]", "values": [{"measurement": "Ki", "setting": "PDF", "result": 15, "unit": "nM"}]}]}
